Measured values reported in US8148391B2 (Cephalon, Inc., priority 2006, dated 2012).
Read-outs that look alike come from different tables or passages of the source.

Key:
[1] = biological target: T1, baculovirus-expressed ALK (Homo sapiens, UniProt Q9UM73); assay: ALK Kinase Assay (ELISA-type, time-resolved fluorescence); assay type: biochemical
T1 construct: host or cells: baculovirus expression system
Outline: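 Wells were coated with phospholipase C-γ at 10 μg/mL in Tris-buffered saline. Adding 30 ng/ml enzyme started the reaction, which ran at 37° C for 15 minutes before Eu-N1 PT66 antibody detection. Percent inhibition versus log10 concentration gave IC50 by variable-slope fit.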

[2] = biological target: T2, c-Met (cytoplasmic domain) (Homo sapiens, UniProt P08581); assay: c-Met Kinase Assay (same methods as for ALK, with modifications); assay type: biochemical
T2 construct: 10 ng/mL c-Met (cytoplasmic domain, Invitrogen Corporation #PV3143); purchased Invitrogen Corporation PV3143
T2 sequence (P08581 956-1390 limits assumed): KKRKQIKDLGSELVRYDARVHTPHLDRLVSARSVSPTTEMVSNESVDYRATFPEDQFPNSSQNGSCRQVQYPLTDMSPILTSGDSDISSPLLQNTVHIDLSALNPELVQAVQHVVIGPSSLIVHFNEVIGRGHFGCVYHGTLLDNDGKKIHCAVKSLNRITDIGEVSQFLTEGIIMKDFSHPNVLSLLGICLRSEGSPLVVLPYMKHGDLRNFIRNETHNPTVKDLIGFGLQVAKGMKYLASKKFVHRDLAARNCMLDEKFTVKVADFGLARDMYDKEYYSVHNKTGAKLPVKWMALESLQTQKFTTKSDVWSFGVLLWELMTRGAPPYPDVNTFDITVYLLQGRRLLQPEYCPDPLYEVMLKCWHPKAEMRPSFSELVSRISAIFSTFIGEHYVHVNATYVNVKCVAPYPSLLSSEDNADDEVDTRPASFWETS
Outline: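 IC50 values were fitted by variable-slope sigmoidal regression of percent inhibition against log compound concentration. Phosphorylation was read with Eu-N1 PT66 antibody after a 15 min, 37 °C reaction. The reaction was initiated with 10 ng/mL c-Met cytoplasmic domain on wells coated with 10 μg/mL PLC-γ in TBS.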

[3] = 1 μM ATP (Km level), 30 ng/ml ALK, 37° C., 15 minutes, read-out: ALK Activity (ALK kinase inhibition, IC50 class)
[4] = 1 μM ATP (Km level), 10 ng/mL c-Met, read-out: cMet Activity (c-Met kinase inhibition, IC50 class)
[5] = ALK kinase inhibition, 1 μM ATP, read-out: ALK Activity
[6] = c-Met kinase inhibition, 1 μM ATP, read-out: cMet Activity
[7] = ALK kinase inhibition, 1 μM ATP (Km level), read-out: ALK Activity
[8] = c-Met kinase inhibition, 1 μM ATP (Km level), read-out: cMet Activity
[9] = 1 μM ATP (Km level), read-out: ALK Activity (ALK Kinase Inhibition, IC50)
[10] = 1 μM ATP (Km level), read-out: cMet Activity (c-Met Kinase Inhibition, IC50)

T1 sequence (Q9UM73 19-1620): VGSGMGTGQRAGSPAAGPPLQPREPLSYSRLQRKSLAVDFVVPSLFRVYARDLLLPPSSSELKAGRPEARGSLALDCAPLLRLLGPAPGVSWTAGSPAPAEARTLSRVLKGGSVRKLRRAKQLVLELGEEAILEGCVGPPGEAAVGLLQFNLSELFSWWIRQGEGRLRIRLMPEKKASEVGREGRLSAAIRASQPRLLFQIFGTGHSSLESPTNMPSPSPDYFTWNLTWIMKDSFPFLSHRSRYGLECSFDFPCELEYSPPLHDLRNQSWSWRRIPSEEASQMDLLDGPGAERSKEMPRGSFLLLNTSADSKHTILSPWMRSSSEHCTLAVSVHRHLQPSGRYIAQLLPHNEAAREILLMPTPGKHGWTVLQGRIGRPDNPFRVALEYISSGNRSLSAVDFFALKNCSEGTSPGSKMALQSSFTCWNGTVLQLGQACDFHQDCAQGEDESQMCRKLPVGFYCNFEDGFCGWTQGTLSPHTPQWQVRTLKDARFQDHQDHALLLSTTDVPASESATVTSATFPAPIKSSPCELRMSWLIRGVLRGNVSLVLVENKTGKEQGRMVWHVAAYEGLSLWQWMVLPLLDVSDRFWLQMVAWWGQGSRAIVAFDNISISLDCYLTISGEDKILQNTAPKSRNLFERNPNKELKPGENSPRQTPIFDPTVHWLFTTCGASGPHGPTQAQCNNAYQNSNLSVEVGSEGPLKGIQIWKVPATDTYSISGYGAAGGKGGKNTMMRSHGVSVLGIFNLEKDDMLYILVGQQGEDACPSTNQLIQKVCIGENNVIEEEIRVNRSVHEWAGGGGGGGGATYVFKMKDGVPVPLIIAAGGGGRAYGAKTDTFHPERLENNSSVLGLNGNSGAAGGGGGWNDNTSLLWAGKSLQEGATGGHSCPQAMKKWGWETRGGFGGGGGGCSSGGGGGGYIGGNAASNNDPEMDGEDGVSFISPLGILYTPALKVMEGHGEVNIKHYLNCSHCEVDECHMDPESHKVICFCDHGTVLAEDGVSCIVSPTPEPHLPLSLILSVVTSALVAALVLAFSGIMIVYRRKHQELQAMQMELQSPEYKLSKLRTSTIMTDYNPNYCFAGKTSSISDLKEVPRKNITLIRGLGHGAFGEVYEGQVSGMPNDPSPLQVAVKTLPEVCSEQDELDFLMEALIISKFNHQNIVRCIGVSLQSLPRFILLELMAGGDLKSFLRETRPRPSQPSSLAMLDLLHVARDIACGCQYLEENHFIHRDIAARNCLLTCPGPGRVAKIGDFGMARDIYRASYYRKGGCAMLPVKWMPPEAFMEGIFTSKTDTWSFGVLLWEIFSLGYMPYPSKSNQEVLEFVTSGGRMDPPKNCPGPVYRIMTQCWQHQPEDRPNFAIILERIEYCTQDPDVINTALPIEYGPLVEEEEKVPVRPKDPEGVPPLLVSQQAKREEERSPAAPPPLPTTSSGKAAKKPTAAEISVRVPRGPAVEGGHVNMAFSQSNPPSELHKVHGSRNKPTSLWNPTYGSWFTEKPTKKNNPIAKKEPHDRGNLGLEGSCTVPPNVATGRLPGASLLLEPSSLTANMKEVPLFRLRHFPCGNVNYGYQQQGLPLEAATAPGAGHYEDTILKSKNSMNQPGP

SMILES	IC50 [1, 5] [nM]	IC50 [2, 6] [nM]	IC50 [1, 7] [nM]	IC50 [2, 8] [nM]	other results
COc1cc2c(cc1Nc1ncc(Cl)c(Nc3ccccc3S(=O)(=O)N(C)C)n1)CCN(CC(=O)N1CCC1)CC2 [Example 1201, 2-{2-[3-(2-Azetidin-1-yl-2-oxo-ethyl)-8-methoxy-2,3,4,5-tetrahydro-1H-benzo[d]azepin-7-ylamino]-5-chloro-pyrimidin-4-ylamino}-N,N-dimethyl-benzenesulfonamide]					IC50 [1, 3]: < 100 nM; IC50 [2, 4]: > 10000 nM
COc1cc2c(cc1Nc1ncc(Cl)c(Nc3ccc(N4CCOCC4)cc3OC)n1)CCOC(=O)N2C [Example 1506, 2-[5-Chloro-4-(2-methoxy-4-morpholin-4-yl-phenylamino)-pyrimidin-2-ylamino]-3-methoxy-5-methyl-8,9-dihydro-5H-7-oxa-5-aza-benzocyclohepten-6-one]	< 100	> 10000			
CN(C)S(=O)(=O)c1ccccc1Nc1nc(Nc2ccc3c(c2)CCC(N2CCOCC2)CC3)ncc1Cl (stereo not shown) [Example 1032, 2-[5-Chloro-2-(7-morpholin-4-yl-6,7,8,9-tetrahydro-5H-benzocyclohepten-2-ylamino)-pyrimidin-4-ylamino]-N,N-dimethyl-benzenesulfonamide]					IC50 [1, 3]: < 100 nM; IC50 [2, 4]: 100 to 1000 nM
CCN1CCc2ccc(Nc3ncc(F)c(Nc4ccccc4C(=O)NC)n3)cc2CC1 [Example 196, 2-[2-(3-Ethyl-2,3,4,5-tetrahydro-1H-benzo[d]azepin-7-ylamino)-5-fluoro-pyrimidin-4-ylamino]-N-methyl-benzamide]			< 100	< 100	
COc1c(Nc2ncc(Cl)c(N[C@H]3[C@@H](C(N)=O)[C@@H]4C=C[C@H]3C4)n2)ccc2c1CCC(NCCO)CC2 (single isomer, unassigned) [Example 696]					IC50 [1, 9]: < 100 nM; IC50 [2, 10]: > 10000 nM
COCCN1CCc2cc(Nc3ncc(Cl)c(Nc4ccc(N5CCN(C)CC5)cc4OC)n3)c(OC)cc2CC1 [Example 790, 5-Chloro-N*2*-[8-methoxy-3-(2-methoxy-ethyl)-2,3,4,5-tetrahydro-1H-benzo[d]azepin-7-yl]-N*4*-[2-methoxy-4-(4-methyl-piperazin-1-yl)-phenyl]-pyrimidine-2,4-diamine]					IC50 [1, 9]: < 100 nM; IC50 [2, 10]: > 10000 nM
CNC(=O)c1ccccc1Nc1nc(Nc2ccc3c(c2)C2CCC3CN(C(C)=O)C2)ncc1Cl (stereo not shown) [Example 283, 2-[2-(10-Acetyl-10-aza-tricyclo[6.3.2.0*2,7*]trideca-2,4,6-trien-4-ylamino)-5-chloro-pyrimidin-4-ylamino]-N-methyl-benzamide]			< 100	< 100	
COc1cc2c(cc1Nc1ncc(Cl)c(NC3(CC(N)=O)CCCCC3)n1)CCN(CCO)CC2 [Example 849, 2-(1-{5-Chloro-2-[3-(2-hydroxy-ethyl)-8-methoxy-2,3,4,5-tetrahydro-1H-benzo[d]azepin-7-ylamino]-pyrimidin-4-ylamino}-cyclohexyl)-acetamide]					IC50 [1, 9]: < 100 nM; IC50 [2, 10]: > 10000 nM
COCCN1CCc2ccc(Nc3ncc(Cl)c(Nc4ccccc4-n4cccn4)n3)cc2CC1 [Example 316, 5-Chloro-N*2*-[3-(2-methoxy-ethyl)-2,3,4,5-tetrahydro-1H-benzo[d]azepin-7-yl]-N*4*-(2-pyrazol-1-yl-phenyl)-pyrimidine-2,4-diamine]			< 100	100 to 1000	
CNC(=O)c1ccccc1Nc1nc(Nc2ccc3c(c2)N(C)CCN(C)C3=O)ncc1Cl [Example 413, 2-[5-Chloro-2-(1,4-dimethyl-5-oxo-2,3,4,5-tetrahydro-1H-benzo[e][1,4]diazepin-8-ylamino)-pyrimidin-4-ylamino]-N-methylbenzamide]			< 100	< 100	
CCN1C(=O)C(N)CCc2c1ccc(Nc1ncc(Cl)c(Nc3ccccc3S(=O)(=O)C(C)C)n1)c2OC (stereo not shown) [Example 1337, 3-Amino-7-{5-chloro-4-[2-(propane-2-sulfonyl)-phenylamino]-pyrimidin-2-ylamino}-1-ethyl-6-methoxy-1,3,4,5-tetrahydro-benzo[b]azepin-2-one]					IC50 [1, 3]: < 100 nM; IC50 [2, 4]: > 10000 nM
CNS(=O)(=O)c1ccccc1Nc1nc(Nc2cccc3c2C(=O)NCCN3)ncc1Cl [Example 171, 2-[5-Chloro-2-(5-oxo-2,3,4,5-tetrahydro-1H-benzo[e][1,4]diazepin-6-ylamino)pyrimidin-4-ylamino]-N-methyl-benzenesulfonamide]			1000 to 10000	1000 to 10000	
C#CCNC(=O)c1cc(F)cc(F)c1Nc1nc(Nc2ccc3c(c2)CCN(CCOC)CC3)ncc1Cl [Example 1728, 2-{5-Chloro-2-[3-(2-methoxy-ethyl)-2,3,4,5-tetrahydro-1H-benzo[d]azepin-7-ylamino]-pyrimidin-4-ylamino}-3,5-difluoro-N-prop-2-ynyl-benzamide]	100 to 1000	< 100			
CC1(C)CCC(=O)Nc2ccc(Nc3ncc(Cl)c(Nc4ccccc4-c4nccs4)n3)cc21 [Example 978, 7-[5-Chloro-4-(2-thiazol-2-yl-phenylamino)-pyrimidin-2-ylamino]-5,5-dimethyl-1,3,4,5-tetrahydro-benzo[b]azepin-2-one]					IC50 [1, 9]: < 100 nM; IC50 [2, 10]: > 10000 nM

The next lines start with results.

IC50 [1, 5] [nM]	IC50 [2, 6] [nM]	IC50 [1, 7] [nM]	IC50 [2, 8] [nM]	SMILES	other results
< 100	100 to 1000			COc1cc2c(cc1Nc1ncc(Cl)c(Nc3ccccc3S(=O)(=O)N3CC[C@@H](O)C3)n1)CCN(C[C@H](C)O)CC2 [Example 1554, (R)-1-(2-{5-Chloro-2-[3-((S)-2-hydroxy-propyl)-8-methoxy-2,3,4,5-tetrahydro-1H-3-benzazepin-7-ylamino]-pyrimidin-4-ylamino}-benzenesulfonyl)-pyrrolidin-3-ol]	
		< 100	100 to 1000	CCN1CCc2ccc(Nc3ncc(Cl)c(N[C@H]4CCCC[C@H]4C(=O)NC)n3)cc2CC1 (relative stereo) [Example 200, cis-2-[5-Chloro-2-(3-ethyl-2,3,4,5-tetrahydro-1H-benzo[d]azepin-7-ylamino)-pyrimidin-4-ylamino]-cyclohexanecarboxylic acid methylamide]	
< 100	> 10000			CCN1CC(=O)Nc2cc(Nc3ncc(Cl)c(N[C@H]4[C@@H](C(N)=O)[C@@H]5C=C[C@H]4C5)n3)c(OC)cc2C1 [Example 1663, (1S,2S,3R,4R)-3-[5-Chloro-2-(4-ethyl-7-methoxy-2-oxo-2,3,4,5-tetrahydro-1H-benzo[e][1,4]diazepin-8-ylamino)-pyrimidin-4-ylamino]-bicyclo-[2.2.1]hept-5-ene-2-carboxylic acid amide]	
		< 100	100 to 1000	CC(=O)N[C@@H]1CCCC[C@H]1Nc1nc(Nc2ccc3c(c2)C(C)(C)CCC(=O)N3)ncc1Cl [Example 395, N-{(1R,2R)-2-[5-Chloro-2-(5,5-dimethyl-2-oxo-2,3,4,5-tetrahydro-1H-benzo[b]azepin-7-ylamino)-pyrimidin-4-ylamino]-cyclohexyl}-acetamide]	
< 100	1000 to 10000			CCN1CCCC(C)(C)c2ccc(Nc3ncc(Cl)c(N[C@H]4[C@@H](C(N)=O)[C@@H]5C=C[C@H]4C5)n3)cc21 [Example 1634, (1S,2S,3R,4R)-3-[5-Chloro-2-(1-ethyl-5,5-dimethyl-2,3,4,5-tetrahydro-1H-benzo[b]azepin-8-ylamino)-pyrimidin-4-ylamino]-bicyclo[2.2.1]hept-5-ene-2-carboxylic acid amide]	
< 100	1000 to 10000			CNC(=O)c1ccccc1Nc1nc(Nc2cc3c(cc2OC)CCN(CCN2CCOCC2)CC3)ncc1Cl [Example 1524, 2-{5-Chloro-2-[8-methoxy-3-(2-morpholin-4-yl-ethyl)-2,3,4,5-tetrahydro-1H-3-benzazepin-7-ylamino]-pyrimidin-4-ylamino}-N-methyl-benzamide]	
